Assay results: patent US5723461A, “Quinoxalines, a process for their preparation and their use” (Hoechst Aktiengesellschaft, priority 1994, dated 1998)
Values after ≈ are worked out from the molar mass of the structure shown.

How the values were obtained:
[1] = target: T1, HIV reverse transcriptase (Human immunodeficiency virus type 1 group M subtype B, UniProt P04585); experiment: Inhibition of HIV reverse transcriptase (scintillation proximity assay); assay type: biochemical; conditions: Reverse transcriptase assay (SPA), 60 min, 37° C.
T1 construct: purchased HT Biotechnology Ltd., Cambridge, UK; host or cells: E. coli
Description: Examination of the substances for their ability to inhibit HIV reverse transcriptase
The activity of the reverse transcriptase (RT) was determined using a scintillation proximity assay (SPA).
The reagent kit for the RT SPA was obtained from Amersham/Buchler (Braunschweig). The RT enzyme (derived from HIV and cloned in E. coli) was obtained from HT Biotechnology Ltd., Cambridge, UK.
The test was carried out in accordance with the manufacturer's (Amersham) methods manual, with the following modifications:
Bovine serum albumin was added to the assay buffer to a final concentration of 0.5 mg/ml.
The test was carried out in Eppendorf tubes using an assay mixture volume of 100 μl.
The manufacturer's RT concentrate (5000 U/ml) was diluted to an activity of 15 U per ml using 20 mM tris-HCl buffer, pH 7.2, 30% glycerol.
The assay mixtures were incubated for 60 min (37° C.).
After the reaction had been stopped and "developed" with the bead suspension, 130 μl of assay mixture were transferred into 4.5 ml of 10 mM tris-HCl buffer, pH 7.4, 0.15M NaCl and the tritium activity was measured in a β-counter.
In order to carry out a preliminary test of their inhibitory activity, the substances were dissolved in DMSO (stock solution, c=1 mg/ml) and tested when diluted 10^-1, 10^-2, 10^-3 etc. in DMSO.
In order to determine IC50 values, the stock solutions of inhibitor were further diluted in 50 mM tris-HCl buffer, pH 8, and tested at suitable concentrations.
The concentration associated with 50% inhibition of the enzyme was ascertained from the plot of RT activity against log Cinh.

[2] = tested on: HIV; experiment: Testing of preparations against HIV in cell culture (T-cell culture assay); assay type: cell-based; conditions: Human immunodeficiency virus 1, 72 h, HIV-infected lymphocytes, 3 days at 37° C., lowest concentration at which no giant cells occurred, read-out: MIC EC50
Description: Testing of preparations against HIV in cell culture
Description of the method:
Complete medium additionally contains 20% fetal calf serum and 40 IU/ml recombinant interleukin 2.
Lymphocytes, which have been isolated from fresh donor blood by means of Ficoll® gradient centrifugation, are cultured, for 36 hours at 37° C. and under 5% CO2, in complete medium which additionally contains […] phytohemagglutinin (Wellcome). After 10% DMSO has been added, the cells are frozen at a cell density of 5×10^6 and stored in liquid nitrogen. For the experiment, the cells are thawed, washed in the RPMI medium and cultured for 3 to 4 days in the complete medium.
The test preparations were dissolved in DMSO at a concentration of 16.7 mg/ml, and these solutions were diluted with complete medium to a concentration of 1 mg/ml. 0.4 ml of medium was initially introduced into 24-well multiwell plates. After 0.1 ml of the dissolved preparation had been added to the upper row of the plate, a geometric dilution series was produced by transferring 0.1 ml on each occasion. Preparation-free controls contained 0.4 ml of complete medium containing 0.5% DMSO.
Lymphocyte cultures having a cell count of 5×10^5 cells/ml were infected by adding a 1/50 volume of the supernatant from HIV-infected lymphocyte cultures. The titer of these culture supernatants was determined by end-point dilution to be 1-5×10^6 infectious units/ml. After having been incubated at 37° C. for 30 min, the infected lymphocytes were centrifuged off and taken up once again in the same volume of medium. 0.6 ml of this cell suspension was added to each of the wells in the test plate. The assay mixtures were incubated at 37° C. for 3 days.
The infected cell cultures were examined under the microscope for the presence of giant cells, which are indicative of active viral replication in the culture. The lowest preparation concentration at which no giant cells occurred was determined and taken to be the inhibitory concentration against HIV. As a control, the supernatants from the culture plates were assayed for the presence of HIV antigen using an HIV antigen test in accordance with the manufacturer's (Organon) instructions.

| SMILES | IC50 [1] [nM] | EC50 [2] [ng/mL] |
| --- | --- | --- |
| COc1ccc2c(c1)N(C(=O)OCC(C)C)[C@@H](CSC)C(=S)N2 [Example 140g] | 48 | 40 (≈ 0.113 µM) |
| CCC[C@H]1C(=S)Nc2ccccc2N1C(=O)OC(C)C [Example 87] | 92.3 | 4 (≈ 0.0137 µM) |
| C=CCOC(=O)N1c2cc(Cl)ccc2NC(=S)[C@@H]1C [Example 140c] | 371 | 40 (≈ 0.135 µM) |
| CCC(C)OC(=O)N1c2cc(OC)ccc2NC(=S)[C@@H]1CSC (some centres unmarked) [Example 140f] | 53.6 | 8 (≈ 0.0226 µM) |
| CCOc1ccc2c(c1)N(C(=O)OC(C)C)[C@@H](CSC)C(=O)N2 [Example 52] | 29.5 to 295 | < 8 |
| CC[C@H]1C(=S)Nc2ccc(F)cc2N1C(=O)OCC(C)C [Example 140j] | 48.3 | 10 (≈ 0.0322 µM) |
| CSC[C@H]1C(=O)Nc2ccccc2N1C(=O)OC(C)C [Example 34] | 34 to 340 | < 1 |
| CC[C@H]1C(=S)Nc2ccc(O)cc2N1C(=O)OC(C)C [Example 140b] | 238 | < 80 |
| CCC(C)OC(=O)N1c2cc(OC)ccc2NC(=O)[C@@H]1CSC (some centres unmarked) [Example 84g] | 349 | – |
| CCOc1ccc2c(c1)N(C(=O)OC(C)C)[C@@H](CSC)C(=S)N2 [Example 108] | 22.6 | < 5 |
| CCOC(=O)N1c2cc(F)ccc2NC(=O)[C@@H]1CC [Example 78] | 300 | < 80 |
| CC[C@H]1C(=S)Nc2ccc(F)cc2N1C(=O)OC(C)C [Example 95] | – | 2 (≈ 0.00675 µM) |
| CC[C@H]1C(=O)Nc2ccccc2N1C(=O)OC(C)C [Example 30] | – | < 40 |
| CCC(C)OC(=O)N1c2cc(F)ccc2NC(=O)[C@@H]1CC (some centres unmarked) [Example 84j] | 296 | < 80 |
| COC[C@H]1C(=S)Nc2ccc(F)cc2N1C(=O)OC(C)C [Example 140l] | 70.4 | 8 (≈ 0.0256 µM) |
| C=C(C)OC(=O)N1c2cc(Cl)ccc2NC(=S)[C@@H]1CSC [Example 115] | 29.2 | 1.6 (≈ 0.00467 µM) |
| CC[C@H]1C(=S)Nc2ccc(F)cc2N1C(=O)OC [Example 140h] | 29.8 | 10 (≈ 0.0373 µM) |
| CSC[C@H]1C(=S)Nc2ccc(Cl)cc2N1C(=O)OC(C)C [Example 94] | 43.5 | < 8 |
| CSC[C@H]1C(=O)Nc2ccc(Cl)cc2N1C(=O)OC(C)C [Example 38] | 15.2 | < 1 |
| CSC[C@H]1C(=S)Nc2ccc(F)cc2N1C(=O)OC(C)C [Example 98] | 36.5 | 3 (≈ 0.00913 µM) |

| SMILES | IC50 [1] [nM] | EC50 [2] [ng/mL] |
| --- | --- | --- |
| CCCOc1ccc2c(c1)N(C(=O)OC(C)C)[C@@H](CSC)C(=S)N2 [Example 110] | 27.1 to 271 | 4 (≈ 0.0109 µM) |
| C=CCOC(=O)N1c2cc(Cl)ccc2NC(=O)[C@@H]1CC [Example 58] | 33.9 to 339 | 10 (≈ 0.0339 µM) |
| C=CCOC(=O)N1c2cc(Cl)ccc2NC(=S)[C@@H]1CC [Example 114] | 22.5 | 1.6 (≈ 0.00515 µM) |
| C=C(C)OC(=O)N1c2cc(Cl)ccc2NC(=O)[C@@H]1CC [Example 57] | 33.9 to 339 | 1 (≈ 0.00339 µM) |
| CSC[C@H]1C(=O)Nc2ccc(F)cc2N1C(=O)OC(C)C [Example 42] | – | < 8 |
| C=C(C)OC(=O)N1c2cc(Cl)ccc2NC(=O)[C@@H]1CSC [Example 59] | 55.1 | 20 (≈ 0.0612 µM) |
| CSC[C@H]1C(=S)Nc2ccc(O)cc2N1C(=O)OC(C)C [Example 140a] | 285 | 40 (≈ 0.123 µM) |
| C=C(C)OC(=O)N1c2cc(Cl)ccc2NC(=S)[C@@H]1CC [Example 113] | 19.3 | 0.8 (≈ 0.00257 µM) |
| CC[C@H]1C(=O)Nc2ccc(Cl)cc2N1C(=O)OC(C)C [Example 35] | 33.7 | < 80 |
| C=C(C)OC(=O)N1c2cc(OC)ccc2NC(=O)[C@@H]1CSC [Example 68] | 49.6 | 8 (≈ 0.0248 µM) |
| CCOC(=O)N1c2cc(F)ccc2NC(=S)[C@@H]1CC [Example 134] | 10.6 | 8 (≈ 0.0283 µM) |
| CCC[C@H]1C(=O)Nc2ccc(OC)cc2N1C(=O)OC(C)C [Example 44] | – | < 80 |
| CC[C@H]1C(=O)Nc2ccc(F)cc2N1C(=O)OC(C)C [Example 39] | 71.4 | 8 (≈ 0.0285 µM) |
| COc1ccc2c(c1)N(C(=O)OC(C)C)[C@@H](CSC)C(=S)N2 [Example 85, S-4-Isopropoxycarbonyl-6-methoxy-3-(methylthiomethyl)-3,4-dihydroquinoxalin-2(1H)-thione] | 23.5 | 2 (≈ 0.00587 µM) |
| CCCOc1ccc2c(c1)N(C(=O)OC(C)C)[C@@H](CSC)C(=O)N2 [Example 54] | – | 40 (≈ 0.113 µM) |
| C=C(C)OC(=O)N1c2cc(Cl)ccc2NC(=S)[C@@H]1C [Example 140d] | 91 | 10 (≈ 0.0337 µM) |
| CCCC[C@H]1C(=S)Nc2ccccc2N1C(=O)OC(C)C [Example 88] | – | < 40 |
| COc1ccc2c(c1)N(C(=O)OC(C)C)[C@@H](CSC)C(=O)N2 [Example 29, S-4-Isopropoxycarbonyl-6-methoxy-3-(methylthiomethyl)-3,4-dihydroquinoxalin-2(1H)-one] | 30.8 to 308 | < 8 |
| COC[C@H]1C(=O)Nc2ccc(F)cc2N1C(=O)OC(C)C [Example 84o] | – | 80 (≈ 0.27 µM) |
| CCC[C@H]1C(=O)Nc2ccccc2N1C(=O)OC(C)C [Example 31] | – | 50 (≈ 0.181 µM) |

| SMILES | IC50 [1] [nM] | EC50 [2] [ng/mL] |
| --- | --- | --- |
| CC[C@H]1C(=S)Nc2ccccc2N1C(=O)OC(C)C [Example 86] | 39.5 | 1 (≈ 0.00359 µM) |
| CC[C@H]1C(=O)Nc2ccc(OC)cc2N1C(=O)OC(C)C [Example 43] | – | < 1 |
| CC[C@H]1C(=S)Nc2ccc(Cl)cc2N1C(=O)OC(C)C [Example 91] | 12.8 | 2 (≈ 0.00639 µM) |
| CCC[C@H]1C(=S)Nc2ccc(F)cc2N1C(=O)OC(C)C [Example 96] | 51.5 | 80 (≈ 0.258 µM) |
| CCCCOC(=O)N1c2cc(F)ccc2NC(=O)[C@@H]1CC [Example 84l] | 510 | 80 (≈ 0.272 µM) |
| C=C(C)OC(=O)N1c2cc(F)ccc2NC(=O)[C@@H]1CC [Example 62] | 331 | 80 (≈ 0.287 µM) |
| CCC[C@H]1C(=O)Nc2ccc(F)cc2N1C(=O)OC(C)C [Example 40] | 34 to 340 | 80 (≈ 0.272 µM) |
| CCOC(=O)N1c2cc(Cl)ccc2NC(=O)[C@@H]1CSC [Example 61] | 31.8 to 318 | 2 (≈ 0.00635 µM) |
| CCC(C)OC(=O)N1c2cc(F)ccc2NC(=S)[C@@H]1CC (some centres unmarked) [Example 140k] | 51.5 | 8 (≈ 0.0258 µM) |
| CCCOC(=O)N1c2cc(Cl)ccc2NC(=O)[C@@H]1CSC [Example 60] | 30.4 | 40 (≈ 0.122 µM) |
| COC[C@H]1C(=S)Nc2ccc(OC)cc2N1C(=O)OC(C)C [Example 104] | 108 | 8 (≈ 0.0247 µM) |
| CCC[C@H]1C(=S)Nc2ccc(OC)cc2N1C(=O)OC(C)C [Example 100] | 49.6 | 4 (≈ 0.0124 µM) |
| CC(C)OC(=O)N1c2cc(F)ccc2NC(=O)[C@@H]1C [Example 84i] | 638 | 80 (≈ 0.3 µM) |
| C=C(C)OC(=O)N1c2cc(OC)ccc2NC(=S)[C@@H]1CSC [Example 124] | – | < 8 |
| CC[C@H]1C(=S)Nc2ccc(OC)cc2N1C(=O)OC(C)C [Example 99] | 35.7 | < 1 |
| CSC[C@H]1C(=S)Nc2ccccc2N1C(=O)OC(C)C [Example 90] | 16.1 | < 8 |
| CCCCOC(=O)N1c2cc(F)ccc2NC(=S)[C@@H]1CC [Example 140i] | 70.9 | 10 (≈ 0.0322 µM) |
| CCC(C)COC(=O)N1c2cc(OC)ccc2NC(=S)[C@@H]1CSC (some centres unmarked) [Example 125] | 40.7 | – |
